± gives the uncertainty stated by the source.
Assay: TIMS collision cross section in N2 (TIMS CCS N2); higher = larger gas-phase ion size
Conditions: drift gas: N2 (99.4% N2, 0.6% O2), calibration: Stow et al. 2017 values for Agilent ESI-L Low Concentration Tune Mix, ionization: negative ESI
Experimental: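 Authentic plant natural product standards (10-50 ppm in 80% methanol) were analysed by UHPLC (BEH C18, 60 °C) coupled to a Bruker timsTOF Pro in negative ESI with N2 drift gas. TIMS collision cross sections were computed from mobility peak apices after calibration with Agilent Tune Mix using Stow et al. reference values. Values are the average of triplicate runs on different days, reported per annotated ion species (deprotonated ion, adducts, dimer, oxidized ion).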

Row | Structure (SMILES) | TIMS collision cross section in N2 (ion species: [2M-H]-) [Å²] | TIMS collision cross section in N2 (ion species: [M-H]-) [Å²] | other results
1 | COc1ccccc1-c1cc(=O)c2c(O)cc(O)cc2o1 [5,7-Dihydroxy-2'-methoxyflavone] | 238.49 ± 0.23 | 167.34 ± 0.07 | 
2 | COc1ccc(-c2cc(=O)c3c(O)cc(O)cc3o2)cc1 [5,7-Dihydroxy-4'-methoxyflavone] |  | 170.87 ± 0.1 | TIMS collision cross section in N2 (ion species: [M-3H]-): 165.19 ± 0.13 Å²
3 | COc1ccc(C2CC(=O)c3c(O)cc(O)cc3O2)cc1OC (centres undefined) [5,7-dihydroxy-3',4'-dimethoxy-flavanone] | 238.03 ± 0.5 | 175.95 ± 0.1 | TIMS collision cross section in N2 (ion species: [M-H+Na+HCO2H]-): 195.74 ± 0.19 Å²
4 | O=C1CC(c2ccccc2)Oc2c(O)ccc(O)c21 (centres undefined) [5,8-Dihydroxyflavanone] |  | 158.38 ± 0.01 | 
5 | COc1ccc(C2CC(=O)c3c(O)cccc3O2)cc1OC (centres undefined) [5-Hydroxy-3',4'-dimethoxyflavanone] |  | 174.21 ± 0.21 | TIMS collision cross section in N2 (ion species: [M-H+Na+HCO2H]-): 187.65 ± 0.61 Å²
6 | COc1cc(/C=C/C(=O)O)cc(O)c1O [5-Hydroxyferulic acid] |  | 141.26 ± 0.044 | 
7 | O=c1cc(-c2ccccc2)oc2cccc(O)c12 [5-Hydroxyflavone] |  | 156 ± 0.14 | TIMS collision cross section in N2 (ion species: [M-H+Na+HCO2H]-): 173.98 ± 0.31 Å²
8 | O=C1CC(c2ccc(O)c(O)c2)Oc2cc(O)c(O)cc21 (centres undefined) [6,7,3',4'-Tetrahydroxyflavanone] |  | 167.53 ± 0.27 | TIMS collision cross section in N2 (ion species: [M-3H]-): 161.92 ± 0.36 Å²
9 | O=c1c(-c2ccc(O)cc2)coc2cc(O)c(O)cc12 [6,7,4'-Trihydroxyisoflavone] | 249.43 ± 0.37 | 159.49 ± 0.16 | 
10 | CC(C)=CCc1c(O)c(CC=C(C)C)c2c(c1O)C(=O)C[C@@H](c1ccc(O)cc1)O2 [6,8-diprenylnaringenin] |  | 206.73 ± 0.66 | 
11 | O=C1CC(c2ccccc2)Oc2ccc(O)cc21 (centres undefined) [6-Hydroxyflavanone] | 244.54 ± 0.11 | 156.92 ± 0.15 | 
12 | O=c1cc(-c2ccccc2)oc2ccc(O)cc12 [6-Hydroxyflavone] | 239.79 ± 0.056 | 155.92 ± 0.15 | 
13 | CC(C)=CCC/C(C)=C/Cc1c(O)cc2c(c1O)C(=O)C[C@@H](c1ccc(O)cc1)O2 [6-geranylnaringenin] | 275.87 ± 0.17 | 204.76 ± 0.16 | 
14 | CC(C)=CCc1c(O)cc2c(c1O)C(=O)C[C@@H](c1ccc(O)cc1)O2 [6-prenylnaringenin] | 235.03 ± 0.42 | 183.64 ± 0.61 | 
15 | O=c1cc(-c2cc(O)c(O)c(O)c2)oc2cc(O)ccc12 [7,3',4',5'-Tetrahydroxyflavone] |  | 161.92 ± 0.042 | 
16 | O=c1c(-c2ccc(O)c(O)c2)coc2cc(O)ccc12 [7,3',4'-TRIHYDROXYISOFLAVONE] |  | 162.61 ± 0.21 | TIMS collision cross section in N2 (ion species: [M-3H]-): 156.67 ± 0.24 Å²
17 | COc1ccc(-c2oc3cc(OC)ccc3c(=O)c2O)cc1 [7,4'-Dimethoxy-3-hydroxyflavone] |  |  | TIMS collision cross section in N2 (ion species: [M-H+Na+HCO2H]-): 193.67 ± 0.15 Å²
18 | COc1ccc(C2CC(=O)c3c(O)cc(OC)cc3O2)cc1 (centres undefined) [7,4'-Dimethoxy-5-hydroxyflavanone] |  | 175.55 ± 0.29 | TIMS collision cross section in N2 (ion species: [M-H+Na+HCO2H]-): 194.46 ± 0.47 Å²
19 | O=c1cc(-c2ccc(O)cc2)oc2cc(O)ccc12 [7,4'-dihydroxyflavone] | 221.31 ± 0.038 | 157.01 ± 0.16 | 
20 | COc1cccc(-c2cc(=O)c3ccc(O)cc3o2)c1 [7-Hydroxy-3'-methoxyflavone] | 229.62 ± 0.17 | 165.22 ± 0.11 | 
21 | COc1ccc(-c2cc(=O)c3ccc(O)cc3o2)cc1 [7-Hydroxy-4'-methoxyflavone] | 231.78 ± 0.34 | 165.03 ± 0.085 | 
22 | O=c1cc(-c2ccccc2)oc2cc(O)ccc12 [7-Hydroxyflavone] | 228.17 ± 0.39 | 153.67 ± 0.056 | 
23 | COc1ccc2c(=O)cc(-c3ccc(O)cc3)oc2c1 [7-Methoxy-4'-hydroxyflavone] | 257.82 ± 0.34 | 164.31 ± 0.31 | 
24 | O=c1cc(-c2ccccc2)oc2cc(O)c(O)c(O)c12 [Baicalein] |  |  | TIMS collision cross section in N2 (ion species: [M-3H]-): 158.42 ± 0.15 Å²
25 | CC1(C)CC[C@]2(C(=O)O)CC[C@]3(C)C(=CC[C@@H]4[C@@]5(C)CC[C@H](O[C@@H]6OC[C@H](O)[C@H](O)[C@H]6O[C@@H]6O[C@H](CO)[C@@H](O)[C@H](O)[C@H]6O)[C@@](C)(CO)[C@@H]5CC[C@]43C)[C@@H]2C1 [Cauloside C] |  |  | TIMS collision cross section in N2 (ion species: [M-H+HCO2H]-): 289.87 ± 0.76 Å²
26 | O=C(/C=C/c1ccc(O)c(O)c1)O[C@@H]1C[C@](O)(C(=O)O)C[C@@H](O)[C@H]1O [Chlorogenic acid] |  |  | TIMS collision cross section in N2 (ion species: [M-3H]-): 187.02 ± 0.44 Å²

More lines, main results first:

Row | TIMS collision cross section in N2 (ion species: [2M-H]-) [Å²] | TIMS collision cross section in N2 (ion species: [M-H]-) [Å²] | Structure (SMILES) | other results
27 |  | 163.71 ± 0.025 | COc1ccc2c(c1)OC(c1ccccc1)CC2=O (centres undefined) [7-Methoxyflavanone] | 
28 |  | 162.79 ± 0.25 | COc1ccc(-c2cc3ccc(O)cc3oc2=O)cc1 [7-hydroxy 3(4- methoxyphenyl) coumarin] | 
29 |  | 165.83 ± 0.053 | COc1ccc(O)c2c1C(=O)CC(c1ccccc1)O2 (centres undefined) [8-Hydroxy-5-methoxyflavanone] | 
30 |  | 183.54 ± 0.32 | CC(C)=CCc1c(O)cc(O)c2c1O[C@H](c1ccc(O)cc1)CC2=O [8-prenylnaringenin] | 
31 |  | 206.74 ± 0.14 | O=c1cc(-c2ccc(O)cc2)oc2cc(OC3O[C@H](CO)[C@@H](O)[C@H](O)[C@H]3O)cc(O)c12 (some centres undefined) [Apigenin-7-O-glucoside (apigetrin)] | TIMS collision cross section in N2 (ion species: [M-H+Na+HCO2H]-): 228.65 ± 0.32 Å²
32 | 238.72 ± 0.12 | 157.47 ± 0.15 | O=c1cc(-c2ccc(O)cc2)oc2cc(O)cc(O)c12 [Apigenin] | 
33 |  | 218.58 ± 0.23 | COc1cc2oc(-c3ccc(O)cc3O)c(CC=C(C)C)c(=O)c2c(O)c1/C=C/C(C)C [Artocarpin] | TIMS collision cross section in N2 (ion species: [M-H+Na+HCO2H]-): 229.53 ± 0.64 Å²
34 |  | 222.65 ± 0.35 | C[C@H]1[C@H](C)CC[C@]2(C(=O)O)CC[C@]3(C)C(=CC[C@@H]4[C@@]5(C)C[C@@H](O)[C@H](O)[C@@](C)(CO)[C@@H]5CC[C@]43C)[C@H]12 [Asiatic acid] | 
35 | 274.03 ± 0.72 | 194.21 ± 0.22 | O=C(CCc1ccc(O)c(O)c1)c1c(O)cc(O)c([C@@H]2O[C@H](CO)[C@@H](O)[C@H](O)[C@H]2O)c1O [Aspalathin] | TIMS collision cross section in N2 (ion species: [M-3H]-): 195.17 ± 0.1 Å²
36 | 261.04 ± 0.32 | 166.11 ± 0.071 | COc1ccc(-c2coc3cc(O)cc(O)c3c2=O)cc1 [Biochanin A (5,7-Dihydroxy-4'-methoxyisoflavone)] | 
37 |  | 222.31 ± 0.39 | CC1(C)CC[C@]2(C)CC[C@]3(C)C(=CC[C@@H]4[C@@]5(C)CC[C@@H](O)[C@](C)(C(=O)O)[C@@H]5CC[C@]43C)[C@@H]2C1 [Boswellic acid, alpha-] | TIMS collision cross section in N2 (ion species: [M-H+Na+HCO2H]-): 239.79 ± 0.21 Å²
38 |  | 156.67 ± 0.19 | Oc1cc(O)c2c(c1)O[C@@H](c1ccc(O)c(O)c1)[C@H](O)C2 [Catechin] | 

— the supplement of paper PMC7023306
